Columns and labels:
Assay in all cases: Off-Target Kinase Profiling
Assay type in all cases: biochemical
Conditions in all cases: 10 μM; ATP near Km
MSSK1 = target: T1, MSSK1 (Homo sapiens, UniProt Q9UPE1)
T1 construct: purchased Millipore, Inc. (KinaseProfiler service)
Method in brief: (§1)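 ATP ≈ Km; compound 10 μM; duplicates averaged; POC.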

DDR2 = target: T2, DDR2 (Homo sapiens, UniProt Q16832)
T2 construct: purchased Millipore, Inc. (KinaseProfiler service)
Method in brief: as §1

CAMK1d = target: T3, CAMK1d (Homo sapiens, UniProt Q8IU85)
T3 construct: purchased Millipore (KinaseProfiler service)
Method in brief: as §1

TSSK1 = target: T4, TSSK1 (Homo sapiens, UniProt Q9BXA7)
T4 construct: purchased Millipore, Inc. (KinaseProfiler service)
Method in brief: as §1

Met = target: T5, Met (Homo sapiens, UniProt P08581)
T5 construct: purchased Millipore, Inc. (KinaseProfiler service)
Method in brief: as §1

PKCgamma = target: T6, PKCgamma (Homo sapiens, UniProt P05129)
T6 construct: purchased Millipore, Inc. (KinaseProfiler service)
Method in brief: as §1

Ron = target: T7, Ron (Homo sapiens, UniProt Q04912)
T7 construct: purchased Millipore, Inc. (KinaseProfiler service)
Method in brief: as §1

Pim-3 = target: T8, Pim-3 (Homo sapiens, UniProt Q86V86)
T8 construct: purchased Millipore, Inc. (KinaseProfiler service)
Method in brief: as §1

TBK1 = target: T9, TBK1 (Homo sapiens, UniProt Q9UHD2)
T9 construct: purchased Millipore, Inc. (KinaseProfiler service)
Method in brief: as §1

PRKG1beta = target: T10, PRKG1beta (Homo sapiens, UniProt Q13976)
T10 construct: purchased Millipore, Inc. (KinaseProfiler service)
Method in brief: as §1

SGK3 = target: T11, SGK3 (Homo sapiens, UniProt Q96BR1)
T11 construct: purchased Millipore, Inc. (KinaseProfiler service)
Method in brief: as §1

MKK4_m = target: T12, MKK4_m (Mus musculus, UniProt P47809)
T12 construct: purchased Millipore, Inc. (KinaseProfiler service)
Method in brief: as §1

CK1_y = tested on: CK1_y
Method in brief: as §1

JAK3 = target: T13, JAK3 (Homo sapiens, UniProt P52333)
T13 construct: purchased Millipore, Inc. (KinaseProfiler service)
Method in brief: as §1

Pim-1 = target: T14, Pim-1 (Homo sapiens, UniProt P11309)
T14 construct: purchased Millipore, Inc. (KinaseProfiler service)
Method in brief: as §1

BrSK2 = target: T15, BrSK2 (Homo sapiens, UniProt Q8IWQ3)
T15 construct: purchased Millipore (KinaseProfiler service)
Method in brief: as §1

MST3 = target: T16, MST3 (Homo sapiens, UniProt Q9Y6E0)
T16 construct: purchased Millipore, Inc. (KinaseProfiler service)
Method in brief: as §1

CDK2/cyclinA = target: T17, CDK2/cyclinA (Homo sapiens, UniProt P24941)
T17 construct: purchased Millipore (KinaseProfiler service)
Method in brief: as §1

LOK = target: T18, LOK (Homo sapiens, UniProt O94804)
T18 construct: purchased Millipore, Inc. (KinaseProfiler service)
Method in brief: as §1

CK1gamma3 = target: T19, CK1gamma3 (Homo sapiens, UniProt Q9Y6M4)
T19 construct: purchased Millipore, Inc. (KinaseProfiler service)
Method in brief: as §1

ULK3 = target: T20, ULK3 (Homo sapiens, UniProt Q6PHR2)
T20 construct: purchased Millipore, Inc. (KinaseProfiler service)
Method in brief: as §1

Bmx = target: T21, Bmx (Homo sapiens, UniProt P51813)
T21 construct: purchased Millipore (KinaseProfiler service)
Method in brief: as §1

AKT2 = target: T22, AKT2 (Homo sapiens, UniProt P31751)
T22 construct: purchased Millipore (KinaseProfiler service)
Method in brief: as §1

DMPK = target: T23, DMPK (Homo sapiens, UniProt Q09013)
T23 construct: purchased Millipore, Inc. (KinaseProfiler service)
Method in brief: as §1

p38delta = target: T24, p38delta (Homo sapiens, UniProt O15264)
T24 construct: purchased Millipore, Inc. (KinaseProfiler service)
Method in brief: as §1

PKCdelta = target: T25, PKCdelta (Homo sapiens, UniProt Q05655)
T25 construct: purchased Millipore, Inc. (KinaseProfiler service)
Method in brief: as §1

IKKbeta = target: T26, IKKbeta (Homo sapiens, UniProt O14920)
T26 construct: purchased Millipore, Inc. (KinaseProfiler service)
Method in brief: as §1

TrkB = target: T27, TrkB (Homo sapiens, UniProt Q16620)
T27 construct: purchased Millipore, Inc. (KinaseProfiler service)
Method in brief: as §1

IGF-1R = target: T28, IGF-1R (Homo sapiens, UniProt P08069)
T28 construct: purchased Millipore, Inc. (KinaseProfiler service)
Method in brief: as §1

CDK2/cyclinE = target: T29, CDK2/cyclinE (Homo sapiens, UniProt P24941)
T29 construct: purchased Millipore, Inc. (KinaseProfiler service)
Method in brief: as §1

PKCtheta = target: T30, PKCtheta (Homo sapiens, UniProt Q04759)
T30 construct: purchased Millipore, Inc. (KinaseProfiler service)
Method in brief: as §1

Syk = target: T31, Syk (Homo sapiens, UniProt P43405)
T31 construct: purchased Millipore, Inc. (KinaseProfiler service)
Method in brief: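 10 μM inhibitor, two replicates, ATP near Km for the given kinase. Result given as % of control activity, averaged.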

MSK1 = target: T32, MSK1 (Homo sapiens, UniProt O75582)
T32 construct: purchased Millipore, Inc. (KinaseProfiler service)
Method in brief: as §1

RIPK2 = target: T33, RIPK2 (Homo sapiens, UniProt O43353)
T33 construct: purchased Millipore, Inc. (KinaseProfiler service)
Method in brief: as §1

Plk3 = target: T34, Plk3 (Homo sapiens, UniProt Q9H4B4)
T34 construct: purchased Millipore, Inc. (KinaseProfiler service)
Method in brief: as §1

Hck = target: T35, Hck (Homo sapiens, UniProt P08631)
T35 construct: purchased Millipore, Inc. (KinaseProfiler service)
Method in brief: as §1

Ret = target: T36, Ret (Homo sapiens, UniProt P07949)
T36 construct: purchased Millipore, Inc. (KinaseProfiler service)
Method in brief: as §1

MRCKalpha = target: T37, MRCKalpha (Homo sapiens, UniProt Q5VT25)
T37 construct: purchased Millipore, Inc. (KinaseProfiler service)
Method in brief: as §1

HIPK3 = target: T38, HIPK3 (Homo sapiens, UniProt Q9H422)
T38 construct: purchased Millipore, Inc. (KinaseProfiler service)
Method in brief: as §1

CHK1 = target: T39, CHK1 (Homo sapiens, UniProt O14757)
T39 construct: purchased Millipore, Inc. (KinaseProfiler service)
Method in brief: as §1

FAK2 = target: T40, FAK2 (Homo sapiens, UniProt Q14289)
T40 construct: purchased Millipore, Inc. (KinaseProfiler service)
Method in brief: as §1

PKCalpha = target: T41, PKCalpha (Homo sapiens, UniProt P17252)
T41 construct: purchased Millipore, Inc. (KinaseProfiler service)
Method in brief: as §1

T24 sequence (O15264 whole entry): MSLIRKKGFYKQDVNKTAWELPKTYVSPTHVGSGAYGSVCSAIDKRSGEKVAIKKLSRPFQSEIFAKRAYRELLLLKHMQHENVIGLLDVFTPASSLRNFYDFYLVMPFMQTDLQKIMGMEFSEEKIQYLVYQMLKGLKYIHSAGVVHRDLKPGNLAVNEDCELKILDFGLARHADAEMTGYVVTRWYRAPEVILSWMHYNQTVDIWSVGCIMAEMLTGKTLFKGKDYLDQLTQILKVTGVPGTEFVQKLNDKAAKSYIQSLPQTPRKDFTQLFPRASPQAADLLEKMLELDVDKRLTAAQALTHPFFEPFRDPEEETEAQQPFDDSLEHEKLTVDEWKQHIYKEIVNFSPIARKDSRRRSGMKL
T11 sequence (Q96BR1 whole entry): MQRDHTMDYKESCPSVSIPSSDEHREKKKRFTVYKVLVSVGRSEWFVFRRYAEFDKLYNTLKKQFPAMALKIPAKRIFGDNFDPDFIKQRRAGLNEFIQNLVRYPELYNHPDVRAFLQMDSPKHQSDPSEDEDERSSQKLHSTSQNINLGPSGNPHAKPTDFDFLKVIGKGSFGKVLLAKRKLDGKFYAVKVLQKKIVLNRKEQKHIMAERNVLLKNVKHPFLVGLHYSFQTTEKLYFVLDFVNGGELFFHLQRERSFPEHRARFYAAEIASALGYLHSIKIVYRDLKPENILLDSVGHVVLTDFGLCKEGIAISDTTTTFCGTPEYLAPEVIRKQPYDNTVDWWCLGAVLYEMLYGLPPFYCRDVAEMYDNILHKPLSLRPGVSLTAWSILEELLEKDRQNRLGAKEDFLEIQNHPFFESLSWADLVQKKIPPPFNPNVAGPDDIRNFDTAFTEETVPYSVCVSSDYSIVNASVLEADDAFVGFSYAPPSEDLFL
T2 sequence (Q16832 22-855): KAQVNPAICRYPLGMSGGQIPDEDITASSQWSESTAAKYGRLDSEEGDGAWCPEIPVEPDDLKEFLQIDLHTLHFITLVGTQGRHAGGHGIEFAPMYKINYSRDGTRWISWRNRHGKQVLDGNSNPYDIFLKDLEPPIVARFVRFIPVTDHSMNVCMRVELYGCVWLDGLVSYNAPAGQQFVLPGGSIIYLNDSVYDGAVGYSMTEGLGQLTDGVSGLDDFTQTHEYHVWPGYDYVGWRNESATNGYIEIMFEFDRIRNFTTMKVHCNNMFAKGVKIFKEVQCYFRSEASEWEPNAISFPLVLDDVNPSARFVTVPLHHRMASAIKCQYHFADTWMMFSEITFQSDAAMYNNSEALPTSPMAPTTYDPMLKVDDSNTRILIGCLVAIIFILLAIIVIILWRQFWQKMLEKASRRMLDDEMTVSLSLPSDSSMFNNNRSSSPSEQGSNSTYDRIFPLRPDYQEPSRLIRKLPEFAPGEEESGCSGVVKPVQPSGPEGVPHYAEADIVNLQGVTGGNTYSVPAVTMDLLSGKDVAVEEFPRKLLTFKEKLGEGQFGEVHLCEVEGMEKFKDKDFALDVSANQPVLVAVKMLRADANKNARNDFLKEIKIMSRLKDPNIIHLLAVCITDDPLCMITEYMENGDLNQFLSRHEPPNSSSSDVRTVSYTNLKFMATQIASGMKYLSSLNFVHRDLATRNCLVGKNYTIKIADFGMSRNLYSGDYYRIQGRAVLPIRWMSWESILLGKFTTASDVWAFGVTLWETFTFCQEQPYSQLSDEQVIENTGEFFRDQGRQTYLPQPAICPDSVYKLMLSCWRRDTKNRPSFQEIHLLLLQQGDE
T18 sequence (O94804 whole entry): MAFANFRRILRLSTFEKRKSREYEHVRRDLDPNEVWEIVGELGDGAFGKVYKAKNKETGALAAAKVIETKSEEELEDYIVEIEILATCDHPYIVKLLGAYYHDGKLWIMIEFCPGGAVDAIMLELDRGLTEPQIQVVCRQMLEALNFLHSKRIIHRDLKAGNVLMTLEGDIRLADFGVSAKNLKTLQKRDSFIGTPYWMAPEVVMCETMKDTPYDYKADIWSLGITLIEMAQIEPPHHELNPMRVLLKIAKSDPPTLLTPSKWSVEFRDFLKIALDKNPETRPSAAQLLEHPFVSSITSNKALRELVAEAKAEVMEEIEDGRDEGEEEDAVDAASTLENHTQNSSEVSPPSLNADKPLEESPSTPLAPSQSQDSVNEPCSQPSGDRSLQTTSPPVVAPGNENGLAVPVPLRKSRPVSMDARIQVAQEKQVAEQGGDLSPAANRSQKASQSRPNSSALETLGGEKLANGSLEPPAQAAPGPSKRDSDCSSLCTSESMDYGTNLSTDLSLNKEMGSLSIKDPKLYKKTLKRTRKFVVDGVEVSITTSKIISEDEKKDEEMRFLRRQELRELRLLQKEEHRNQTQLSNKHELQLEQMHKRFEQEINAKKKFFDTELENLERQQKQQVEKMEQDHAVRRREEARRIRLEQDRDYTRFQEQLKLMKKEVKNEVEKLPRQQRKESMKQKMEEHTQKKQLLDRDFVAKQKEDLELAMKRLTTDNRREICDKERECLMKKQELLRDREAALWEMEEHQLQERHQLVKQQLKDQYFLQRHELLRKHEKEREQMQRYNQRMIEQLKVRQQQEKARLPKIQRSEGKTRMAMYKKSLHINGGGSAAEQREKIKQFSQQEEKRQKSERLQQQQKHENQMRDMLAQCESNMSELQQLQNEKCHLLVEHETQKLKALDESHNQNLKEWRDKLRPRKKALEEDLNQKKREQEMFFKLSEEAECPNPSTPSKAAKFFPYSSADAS
T7 sequence (Q04912 25-1400): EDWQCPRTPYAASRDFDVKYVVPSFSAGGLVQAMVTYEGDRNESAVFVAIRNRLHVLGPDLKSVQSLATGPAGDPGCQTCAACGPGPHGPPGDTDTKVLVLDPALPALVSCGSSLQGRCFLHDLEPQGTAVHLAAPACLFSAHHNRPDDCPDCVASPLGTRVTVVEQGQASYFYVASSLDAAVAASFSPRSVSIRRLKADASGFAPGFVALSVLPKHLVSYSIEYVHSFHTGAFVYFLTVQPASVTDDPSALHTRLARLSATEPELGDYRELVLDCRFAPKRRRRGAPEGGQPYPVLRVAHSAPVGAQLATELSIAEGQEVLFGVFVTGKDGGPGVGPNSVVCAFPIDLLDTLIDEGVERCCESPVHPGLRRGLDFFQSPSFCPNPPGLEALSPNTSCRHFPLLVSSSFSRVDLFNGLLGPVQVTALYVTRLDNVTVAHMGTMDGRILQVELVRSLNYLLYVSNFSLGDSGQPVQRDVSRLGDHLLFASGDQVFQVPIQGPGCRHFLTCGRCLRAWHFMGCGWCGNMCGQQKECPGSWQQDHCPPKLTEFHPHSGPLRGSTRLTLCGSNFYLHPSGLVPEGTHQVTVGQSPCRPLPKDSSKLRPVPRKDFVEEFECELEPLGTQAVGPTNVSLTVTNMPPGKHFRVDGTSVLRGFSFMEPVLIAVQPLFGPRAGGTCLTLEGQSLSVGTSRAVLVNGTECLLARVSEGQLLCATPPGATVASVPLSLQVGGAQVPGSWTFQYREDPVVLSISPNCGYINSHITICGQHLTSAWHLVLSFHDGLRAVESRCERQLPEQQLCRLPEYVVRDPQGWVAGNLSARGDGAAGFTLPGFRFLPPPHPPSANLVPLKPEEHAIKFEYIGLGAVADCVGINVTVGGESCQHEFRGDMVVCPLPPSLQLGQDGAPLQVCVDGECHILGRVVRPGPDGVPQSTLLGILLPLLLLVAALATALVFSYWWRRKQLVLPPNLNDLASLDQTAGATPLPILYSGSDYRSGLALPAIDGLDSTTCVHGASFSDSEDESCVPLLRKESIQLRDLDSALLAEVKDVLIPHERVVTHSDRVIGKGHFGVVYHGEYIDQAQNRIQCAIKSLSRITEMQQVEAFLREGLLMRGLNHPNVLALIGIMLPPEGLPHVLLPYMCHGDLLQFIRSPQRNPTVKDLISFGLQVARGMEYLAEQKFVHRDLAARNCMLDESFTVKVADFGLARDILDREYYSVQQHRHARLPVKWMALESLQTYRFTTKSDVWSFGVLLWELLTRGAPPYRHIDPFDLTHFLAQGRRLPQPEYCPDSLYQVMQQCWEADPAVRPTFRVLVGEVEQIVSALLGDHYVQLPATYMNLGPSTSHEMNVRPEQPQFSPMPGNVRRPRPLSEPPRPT
T33 sequence (O43353 whole entry): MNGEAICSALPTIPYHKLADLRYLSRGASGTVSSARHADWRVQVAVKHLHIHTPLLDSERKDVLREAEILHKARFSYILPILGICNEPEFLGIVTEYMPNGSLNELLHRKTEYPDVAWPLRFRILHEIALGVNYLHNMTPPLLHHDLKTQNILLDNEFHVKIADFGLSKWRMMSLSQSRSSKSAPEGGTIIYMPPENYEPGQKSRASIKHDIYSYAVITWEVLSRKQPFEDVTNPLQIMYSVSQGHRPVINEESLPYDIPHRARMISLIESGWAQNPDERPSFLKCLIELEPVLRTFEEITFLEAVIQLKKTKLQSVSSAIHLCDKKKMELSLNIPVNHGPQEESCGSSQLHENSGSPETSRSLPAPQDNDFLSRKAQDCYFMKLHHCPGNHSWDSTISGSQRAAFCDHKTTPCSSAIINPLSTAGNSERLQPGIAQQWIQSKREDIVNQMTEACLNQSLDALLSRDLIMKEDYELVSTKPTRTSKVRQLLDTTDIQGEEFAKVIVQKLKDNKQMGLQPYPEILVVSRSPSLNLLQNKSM

In the case of `COCc1ccc(C2CCC2)c(CNC(=O)Nc2c(C)c(-c3cnc(C)nc3)nn2-c2ccccc2)c1` [Example 10, 1-(2-cyclobutyl-5-(methoxymethyl)benzyl)-3-(4-methyl-3-(2-methylpyrimidin-5-yl)-1-phenyl-1H-pyrazol-5-yl)urea], the “Avg POC MSSK1” value (MSSK1) is reported as 112 POC, the “Avg POC DDR2” value (DDR2) is reported as 105.5 POC and the “Avg POC CAMK1d” value (CAMK1d) is reported as 81 POC. For the same compound, the “Avg POC TSSK1” value (TSSK1) was 60 POC, the “Avg POC Met” value (Met) was 117 POC and the “Avg POC PKCgamma” value (PKCgamma) was 101 POC. The “Avg POC Ron” value (Ron) was 100.5 POC, the “Avg POC Pim-3” value (Pim-3) was 105.5 POC and the “Avg POC TBK1” value (TBK1) was 104.5 POC. The “Avg POC PRKG1beta” value (PRKG1beta) was 107.5 POC, the “Avg POC SGK3” value (SGK3) was 92.5 POC and the “Avg POC MKK4_m” value (MKK4_m) was 125.5 POC. The “Avg POC CK1_y” value (CK1_y) was 97 POC, the “Avg POC JAK3” value (JAK3) was 94.5 POC and the “Avg POC Pim-1” value (Pim-1) was 101.5 POC. For the same compound, the “Avg POC BrSK2” value (BrSK2) was 95 POC, the “Avg POC MST3” value (MST3) was 99 POC and the “Avg POC CDK2/cyclinA” value (CDK2/cyclinA) was 98.5 POC. The “Avg POC LOK” value (LOK) was 101 POC, the “Avg POC CK1gamma3” value (CK1gamma3) was 39 POC and the “Avg POC ULK3” value (ULK3) was 93.5 POC. The “Avg POC Bmx” value (Bmx) was 100 POC, the “Avg POC AKT2” value (AKT2) was 142 POC and the “Avg POC DMPK” value (DMPK) was 101.5 POC. For the same compound, the “Avg POC p38delta” value (p38delta) was 81 POC, the “Avg POC PKCdelta” value (PKCdelta) was 91.5 POC and the “Avg POC IKKbeta” value (IKKbeta) was 104.5 POC. For the same compound, the “Avg POC TrkB” value (TrkB) was 0.5 POC, the “Avg POC IGF-1R” value (IGF-1R) was 82 POC and the “Avg POC CDK2/cyclinE” value (CDK2/cyclinE) was 93 POC. The “Avg POC PKCtheta” value (PKCtheta) was 94 POC, the “Avg POC Syk” value (Syk) was 79.5 POC and the “Avg POC MSK1” value (MSK1) was 88.5 POC. The “Avg POC RIPK2” value (RIPK2) was 99 POC, the “Avg POC Plk3” value (Plk3) was 111 POC and the “Avg POC Hck” value (Hck) was 67 POC. For the same compound, the “Avg POC Ret” value (Ret) was 89.5 POC, the “Avg POC MRCKalpha” value (MRCKalpha) was 122 POC and the “Avg POC HIPK3” value (HIPK3) was 95.5 POC. The “Avg POC CHK1” value (CHK1) was 102.5 POC, the “Avg POC FAK2” value (FAK2) was 96 POC and the “Avg POC PKCalpha” value (PKCalpha) was 100.5 POC.

For `COCc1ccc(C(F)(F)F)c(CNC(=O)Nc2c(C)c(-c3cnn(C)c3)nn2-c2ccccc2)c1` [Example 33, 1-(1′,4-dimethyl-1-phenyl-1H,1′H-[3,4′-bipyrazol]-5-yl)-3-(5-(methoxymethyl)-2-(trifluoromethyl)benzyl)urea], the “Avg POC MSSK1” value (MSSK1) was 138.5 POC, the “Avg POC DDR2” value (DDR2) was 111 POC and the “Avg POC CAMK1d” value (CAMK1d) was 111.5 POC. For the same compound, the “Avg POC TSSK1” value (TSSK1) was 80 POC, the “Avg POC Met” value (Met) was 122.5 POC and the “Avg POC PKCgamma” value (PKCgamma) was 98 POC. For the same compound, the “Avg POC Ron” value (Ron) was 95.5 POC, the “Avg POC Pim-3” value (Pim-3) was 103 POC and the “Avg POC TBK1” value (TBK1) was 105.5 POC. For the same compound, the “Avg POC PRKG1beta” value (PRKG1beta) was 121 POC, the “Avg POC SGK3” value (SGK3) was 150 POC and the “Avg POC MKK4_m” value (MKK4_m) was 137 POC. For the same compound, the “Avg POC CK1_y” value (CK1_y) was 97.5 POC, the “Avg POC JAK3” value (JAK3) was 114 POC and the “Avg POC Pim-1” value (Pim-1) was 138 POC. The “Avg POC BrSK2” value (BrSK2) was 145.5 POC, the “Avg POC MST3” value (MST3) was 126.5 POC and the “Avg POC CDK2/cyclinA” value (CDK2/cyclinA) was 103.5 POC. The “Avg POC LOK” value (LOK) was 93.5 POC, the “Avg POC CK1gamma3” value (CK1gamma3) was 119.5 POC and the “Avg POC ULK3” value (ULK3) was 99.5 POC. For the same compound, the “Avg POC Bmx” value (Bmx) was 127.5 POC, the “Avg POC AKT2” value (AKT2) was 199 POC and the “Avg POC DMPK” value (DMPK) was 104 POC. The “Avg POC p38delta” value (p38delta) was 85 POC, the “Avg POC PKCdelta” value (PKCdelta) was 93 POC and the “Avg POC IKKbeta” value (IKKbeta) was 120.5 POC. The “Avg POC TrkB” value (TrkB) was 0 POC, the “Avg POC IGF-1R” value (IGF-1R) was 44 POC and the “Avg POC CDK2/cyclinE” value (CDK2/cyclinE) was 115.5 POC. For the same compound, the “Avg POC PKCtheta” value (PKCtheta) was 112.5 POC, the “Avg POC Syk” value (Syk) was 123.5 POC and the “Avg POC MSK1” value (MSK1) was 147 POC. For the same compound, the “Avg POC RIPK2” value (RIPK2) was 98.5 POC, the “Avg POC Plk3” value (Plk3) was 109.5 POC and the “Avg POC Hck” value (Hck) was 140 POC. For the same compound, the “Avg POC Ret” value (Ret) was 91 POC, the “Avg POC MRCKalpha” value (MRCKalpha) was 147 POC and the “Avg POC HIPK3” value (HIPK3) was 102 POC. The “Avg POC CHK1” value (CHK1) was 97 POC, the “Avg POC FAK2” value (FAK2) was 108 POC and the “Avg POC PKCalpha” value (PKCalpha) was 104.5 POC.

Source: patent US9969694B2, “N-(arylalkyl)-N′-pyrazolyl-urea, thiourea, guanidine and cyanoguanidine compounds as TrkA kinase inhibitors” (Array BioPharma Inc., priority 2012, dated 2018)
